TGI data for two compounds are collected here from PubChem BioAssay (NCI).

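Results reflect a 48-hour exposure of cells in 96-well plates to compound at five concentrations. TGI marks complete inhibition of growth.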 A value given as a limit tells only on which side of the number the result lay.

Among the test systems are NCI/ADR-RES ovarian; DU-145 prostate; SNB-75 CNS; RPMI-8226 leukemia; LOX IMVI melanoma; CAKI-1 renal; NCI-H226 lung; OVCAR-4 ovarian; SK-OV-3 ovarian; HCT-116 colon; SK-MEL-28 melanoma; OVCAR-5 ovarian; K-562 leukemia; M14 melanoma; MDA-MB-231 breast; SK-MEL-5 melanoma; KM12 colon.
Test in all cases: DTP human tumour cell line panel, 48 h

Take `Cc1nn(C(=O)c2ccc(Cl)cc2)c2c1C(c1ccc(Cl)cc1)SC(N)=N2` (centres undefined): the TGI with NCI/ADR-RES ovarian, in the assay with DU-145 prostate, in the assay with SNB-75 CNS, in the assay with RPMI-8226 leukemia, with LOX IMVI melanoma and in the assay with CAKI-1 renal was above 10 µM in each case. Further, the TGI with NCI-H226 lung, in the assay on OVCAR-4 ovarian, in the assay with SK-OV-3 ovarian, in the assay with HCT-116 colon, in the assay on SK-MEL-28 melanoma and in the assay on OVCAR-5 ovarian was above 10 µM throughout. Besides, the TGI in the assay on K-562 leukemia, in the assay on M14 melanoma, in the assay with MDA-MB-231 breast, with SK-MEL-5 melanoma and in the assay with KM12 colon was above 10 µM throughout.

Turning to `CCOC(=O)C1=NNC(C(=O)c2ccccc2)C1c1ccccc1` (centres undefined), the TGI (usually the concentration at which net growth stops) in the assay on NCI/ADR-RES ovarian is 12.3 µM; with DU-145 prostate, 25.9 µM; in the assay with SNB-75 CNS, 16.7 µM; in the assay on RPMI-8226 leukemia, above 47.2 µM; in the assay with LOX IMVI melanoma, 10.6 µM; with CAKI-1 renal, 3.25 µM. Moreover, the TGI is 39.5 µM in the assay with NCI-H226 lung; above 38.3 µM in the assay with OVCAR-4 ovarian; 33.1 µM with SK-OV-3 ovarian; 7 µM in the assay with HCT-116 colon; 3.67 µM with SK-MEL-28 melanoma; 17.4 µM in the assay on OVCAR-5 ovarian. Moreover, the TGI in the assay with K-562 leukemia is above 100 µM; in the assay with M14 melanoma, 3.75 µM; with MDA-MB-231 breast, 12.2 µM; in the assay on SK-MEL-5 melanoma, 5.78 µM; in the assay on KM12 colon, 19.8 µM.
